# From the supplement of paper PMC10307832
# Compound: Cc1ccc(NC(=O)c2ccc(CN3CCN(C)CC3)cc2)cc1Nc1nc(-c2cccnc2)cs1 [Masitinib] + C[C@@H](Oc1cc(-c2cnn(C3CCNCC3)c2)cnc1N)c1c(Cl)ccc(F)c1Cl [Crizotinib] (partner 1 µM)
# Test: relative viability (nuclei count vs DMSO), 5 days (fraction); higher = more cells survive
# Conditions: first compound 0.01 µM
# Procedure, shortened: (§1)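 Relative viability is defined as nuclei in treated wells over nuclei in vehicle wells. Duplicate plates were run and medians reported. Lung cancer cell lines in 1536-well plates were dosed by pin tool one day after seeding, with one drug or with a fixed anchor-drug dose plus five library-drug doses (not always all listed) in √10 steps, and nuclei were counted after 5 days.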
row,Cell Line,relative viability
1,LXF-289,0.701
2,BEN,0.888
3,HARA,0.961
4,HCC-78,0.356
5,NCI-H441,0.741
6,LCLC-97TM1,0.27
7,NCI-H2023,0.638
8,NCI-H460,0.748
9,NCI-H727,0.824
10,NCI-H520,0.766
11,NCI-H2405,0.77
12,SW 1573,0.761
13,201T,0.836
14,NCI-H1975,0.948
15,HCC-827,0.725
16,NCI-H2347,0.731
17,NCI-H1355,1.06
18,NCI-H650,0.741
19,NCI-H1666,0.91
20,EPLC-272H,0.881
21,NCI-H23,0.524
22,NCI-H1437,0.896
23,NCI-H322M,0.745
24,NCI-H1792,0.866
25,NCI-H2085,0.784
26,HCC-15,0.745
27,PC-3 [JPC-3],1.02
28,LC-2-ad,0.347

# Same assay, conditions: first compound 0.03162 µM
row,Cell Line,relative viability
1,HCC-44,0.844
2,LXF-289,0.783
3,BEN,0.834
4,HARA,0.75
5,HCC-78,0.445
6,NCI-H441,0.804
7,LCLC-97TM1,0.31
8,NCI-H2023,0.737
9,A-427,0.889
10,NCI-H460,0.763
11,NCI-H727,0.844
12,NCI-H1755,0.804
13,NCI-H2405,0.784
14,SW 1573,0.786
15,201T,1.03
16,NCI-H1975,0.88

row,Cell Line,relative viability
1,HCC-827,0.961
2,NCI-H2347,0.759
3,NCI-H1355,1.1
4,NCI-H650,0.66
5,NCI-H1666,1.17
6,EPLC-272H,0.81
7,NCI-H23,0.423
8,NCI-H1915,0.995
9,NCI-H1437,0.875
10,NCI-H322M,0.956
11,NCI-H1792,0.449
12,NCI-H2085,0.775
13,HCC-15,0.826
14,PC-3 [JPC-3],0.974
15,EKVX,0.789
16,LC-2-ad,0.399

# Same assay, conditions: first compound 0.1 µM
row,Cell Line,relative viability
1,HCC-44,0.875
2,LXF-289,0.818
3,BEN,1.09
4,HARA,1.25
5,HCC-78,0.334
6,NCI-H441,0.919
7,LCLC-97TM1,0.394
8,NCI-H2023,0.645
9,NCI-H460,1.03
10,NCI-H727,0.925
11,NCI-H1755,0.866
12,NCI-H520,0.921
13,NCI-H2405,0.848
14,SW 1573,0.754
15,201T,0.99
16,NCI-H1975,1.06

row,Cell Line,relative viability
1,HCC-827,0.95
2,NCI-H2347,0.891
3,NCI-H1355,1.07
4,NCI-H650,0.932
5,NCI-H1666,1.03
6,EPLC-272H,0.803
7,NCI-H23,0.597
8,NCI-H1915,1.01
9,NCI-H1437,0.923
10,NCI-H322M,1.02
11,NCI-H1792,0.993
12,NCI-H2085,0.868
13,HCC-15,0.798
14,PC-3 [JPC-3],0.975
15,EKVX,0.79
16,LC-2-ad,0.466

# Same assay, conditions: first compound 0.3162 µM
row,Cell Line,relative viability
1,HCC-44,0.713
2,LXF-289,0.835
3,BEN,1.18
4,HARA,1.04
5,HCC-78,0.288
6,NCI-H441,0.665
7,LCLC-97TM1,0.288
8,NCI-H2023,0.493
9,A-427,0.845
10,NCI-H460,0.647
11,NCI-H727,0.778
12,NCI-H1755,0.816
13,NCI-H520,0.908
14,NCI-H2405,0.802
15,SW 1573,0.718
16,201T,1.02
17,NCI-H1975,0.872

row,Cell Line,relative viability
1,HCC-827,0.893
2,NCI-H2347,0.707
3,NCI-H1355,0.746
4,NCI-H650,0.643
5,NCI-H1666,0.744
6,EPLC-272H,0.842
7,NCI-H23,0.463
8,NCI-H1915,1.03
9,NCI-H1437,1.04
10,NCI-H322M,0.9
11,NCI-H1792,0.829
12,NCI-H2085,0.985
13,HCC-15,1.04
14,PC-3 [JPC-3],0.968
15,EKVX,0.825
16,LC-2-ad,0.473

# Same assay, conditions: first compound 1 µM
row,Cell Line,relative viability
1,HCC-44,0.739
2,LXF-289,0.802
3,BEN,0.765
4,HARA,1.01
5,HCC-78,0.293
6,NCI-H441,0.696
7,LCLC-97TM1,0.238
8,NCI-H2023,0.589
9,A-427,0.783
10,NCI-H460,0.911
11,NCI-H727,0.91
12,NCI-H1755,0.828
13,NCI-H520,0.577
14,NCI-H2405,0.746
15,SW 1573,0.778
16,201T,0.935
17,NCI-H1975,0.926

row,Cell Line,relative viability
1,HCC-827,0.895
2,NCI-H2347,0.688
3,NCI-H1355,1.01
4,NCI-H650,0.805
5,NCI-H1666,0.832
6,EPLC-272H,0.871
7,NCI-H23,0.465
8,NCI-H1915,1.08
9,NCI-H1437,0.94
10,NCI-H322M,0.873
11,NCI-H1792,1.05
12,NCI-H2085,0.853
13,HCC-15,0.976
14,PC-3 [JPC-3],1.01
15,EKVX,0.922
16,LC-2-ad,0.373

# Compound: CC1=CC(=CC=C1)NC2=NC(=CS2)C3=CC=NC=C3 + CC(C)C[C@H](NC(=O)[C@H](Cc1ccccc1)NC(=O)c1cnccn1)B(O)O [Bortezomib] (partner 0.002 µM)
# Test: as above
# Conditions: first compound 0.08 µM
# Procedure, shortened: as §1
row,Cell Line,relative viability
1,HCC-44,0.75
